pIC50: −log10 of the molar value.
Columns and labels:
SK-MEL-3 tumor cells = test: Method C: Cell Growth Inhibition Assay (CellTiter-Glo), SK-MEL-3; type: cell-based; conditions: Homo sapiens, SK-MEL3, 72 h, 3 days, 4-parameter fit
In short: (§1)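 Plating at 500 cells/well is followed the next day by addition of compound as a 1:3 serial dilution series. After 3 days' incubation, CellTiter-Glo luminescence is read and IC50 is calculated versus DMSO wells.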

Colo205 tumor cells = test: Method C: Cell Growth Inhibition Assay (CellTiter-Glo), Colo205; type: cell-based; conditions: Homo sapiens, COLO 205, 72 h, 3 days, 4-parameter fit
In short: as §1

SK-MEL-28 tumor cells = test: Method C: Cell Growth Inhibition Assay (CellTiter-Glo), SK-MEL-28; type: cell-based; conditions: Homo sapiens, SK-MEL-28, 72 h, 3 days, 4-parameter fit
In short: (§2)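 Cells plated at 500 cells/well, dosed next day with 10-point 1:3 dilution series (0.2% final DMSO) and grown 3 days at 37 °C, 5% CO2. CellTiter-Glo luminescence (total ATP) served as cell-number surrogate; inhibition relative to DMSO controls, IC50 interpolated by 4-parameter fit.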

BT474 tumor cells = test: Method C: Cell Growth Inhibition Assay (CellTiter-Glo), BT474; type: cell-based; conditions: Homo sapiens, BT-474, 72 h, 3 days, 4-parameter fit
ErbB2 = target: T1, ErbB2 (Homo sapiens, UniProt P04626); test: ErbB-2 substrate phosphorylation assay (HTRF); type: biochemical; conditions: Method (A): Enzyme Mix incubated with compound at 20° C. for 1 hr, reaction started by adding Substrate Mix
T1 construct: made in house; host or cells: baculovirus expression system
In short: (§3)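 Baculovirus-expressed kinase (0.8 nM EGFR or 10 nM ErbB2 in enzyme mix) with Peptide C 0.8 μM and ATP 20 μM (substrate-mix levels), MOPS pH 7.5, MnCl2; 90 min, 20 °C, HTRF anti-phosphotyrosine. Method A adds 1 h enzyme–compound preincubation; B none. pIC50, final compound 0.00027–47.6 μM.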

EGFR = target: T2, EGFR (Homo sapiens, UniProt P00533); test: EGFR substrate phosphorylation assay (HTRF); type: biochemical; conditions: Method (A): Enzyme Mix incubated with compound at 20° C. for 1 hr, reaction started by adding Substrate Mix
T2 construct: made in house; host or cells: baculovirus expression system
In short: as §3

HN5 tumor cells = test: Method C: Cell Growth Inhibition Assay (CellTiter-Glo), HN5; type: cell-based; conditions: Homo sapiens, 72 h, 3 days, 4-parameter fit
In short: as §2

A375P F11s tumor cells = test: Method C: Cell Growth Inhibition Assay (CellTiter-Glo), A375P F11s; type: cell-based; conditions: Homo sapiens, 72 h, 3 days, 4-parameter fit
In short: as §2

HT-29 tumor cells = test: Method C: Cell Growth Inhibition Assay (CellTiter-Glo), HT-29; type: cell-based; conditions: Homo sapiens, HT-29, 72 h, 3 days, 4-parameter fit
In short: as §2

T1 sequence (P04626 23-1255): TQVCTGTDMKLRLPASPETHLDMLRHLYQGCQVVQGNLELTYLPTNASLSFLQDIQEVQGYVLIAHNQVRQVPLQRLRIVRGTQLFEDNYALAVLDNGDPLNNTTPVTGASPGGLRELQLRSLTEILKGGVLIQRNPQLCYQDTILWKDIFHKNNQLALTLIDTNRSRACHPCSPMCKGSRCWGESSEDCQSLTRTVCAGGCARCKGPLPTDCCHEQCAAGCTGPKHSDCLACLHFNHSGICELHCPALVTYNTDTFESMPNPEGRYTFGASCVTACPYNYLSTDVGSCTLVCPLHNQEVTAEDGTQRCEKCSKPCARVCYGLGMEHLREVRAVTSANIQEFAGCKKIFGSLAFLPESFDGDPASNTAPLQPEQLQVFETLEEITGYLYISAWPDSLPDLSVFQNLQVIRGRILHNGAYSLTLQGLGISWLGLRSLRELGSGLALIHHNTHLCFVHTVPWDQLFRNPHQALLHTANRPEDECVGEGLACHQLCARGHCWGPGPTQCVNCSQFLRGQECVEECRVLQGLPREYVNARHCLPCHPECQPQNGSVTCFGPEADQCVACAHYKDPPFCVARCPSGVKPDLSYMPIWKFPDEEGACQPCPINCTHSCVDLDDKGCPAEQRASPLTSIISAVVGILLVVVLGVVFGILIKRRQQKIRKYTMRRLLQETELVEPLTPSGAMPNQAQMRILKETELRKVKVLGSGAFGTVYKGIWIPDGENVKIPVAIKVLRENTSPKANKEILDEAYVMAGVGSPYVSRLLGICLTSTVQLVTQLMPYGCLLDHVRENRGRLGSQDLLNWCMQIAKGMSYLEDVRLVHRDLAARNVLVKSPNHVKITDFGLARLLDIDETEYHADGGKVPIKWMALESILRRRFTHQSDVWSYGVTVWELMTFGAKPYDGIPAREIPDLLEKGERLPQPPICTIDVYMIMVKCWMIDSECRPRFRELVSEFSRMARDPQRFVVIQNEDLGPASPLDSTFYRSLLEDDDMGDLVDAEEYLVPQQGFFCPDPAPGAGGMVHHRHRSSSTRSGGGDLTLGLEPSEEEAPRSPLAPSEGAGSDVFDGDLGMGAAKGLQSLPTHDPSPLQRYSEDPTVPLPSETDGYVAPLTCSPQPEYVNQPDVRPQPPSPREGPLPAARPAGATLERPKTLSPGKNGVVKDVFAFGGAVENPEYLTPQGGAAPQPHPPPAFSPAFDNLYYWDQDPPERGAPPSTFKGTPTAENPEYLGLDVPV
T2 sequence (P00533 25-1210): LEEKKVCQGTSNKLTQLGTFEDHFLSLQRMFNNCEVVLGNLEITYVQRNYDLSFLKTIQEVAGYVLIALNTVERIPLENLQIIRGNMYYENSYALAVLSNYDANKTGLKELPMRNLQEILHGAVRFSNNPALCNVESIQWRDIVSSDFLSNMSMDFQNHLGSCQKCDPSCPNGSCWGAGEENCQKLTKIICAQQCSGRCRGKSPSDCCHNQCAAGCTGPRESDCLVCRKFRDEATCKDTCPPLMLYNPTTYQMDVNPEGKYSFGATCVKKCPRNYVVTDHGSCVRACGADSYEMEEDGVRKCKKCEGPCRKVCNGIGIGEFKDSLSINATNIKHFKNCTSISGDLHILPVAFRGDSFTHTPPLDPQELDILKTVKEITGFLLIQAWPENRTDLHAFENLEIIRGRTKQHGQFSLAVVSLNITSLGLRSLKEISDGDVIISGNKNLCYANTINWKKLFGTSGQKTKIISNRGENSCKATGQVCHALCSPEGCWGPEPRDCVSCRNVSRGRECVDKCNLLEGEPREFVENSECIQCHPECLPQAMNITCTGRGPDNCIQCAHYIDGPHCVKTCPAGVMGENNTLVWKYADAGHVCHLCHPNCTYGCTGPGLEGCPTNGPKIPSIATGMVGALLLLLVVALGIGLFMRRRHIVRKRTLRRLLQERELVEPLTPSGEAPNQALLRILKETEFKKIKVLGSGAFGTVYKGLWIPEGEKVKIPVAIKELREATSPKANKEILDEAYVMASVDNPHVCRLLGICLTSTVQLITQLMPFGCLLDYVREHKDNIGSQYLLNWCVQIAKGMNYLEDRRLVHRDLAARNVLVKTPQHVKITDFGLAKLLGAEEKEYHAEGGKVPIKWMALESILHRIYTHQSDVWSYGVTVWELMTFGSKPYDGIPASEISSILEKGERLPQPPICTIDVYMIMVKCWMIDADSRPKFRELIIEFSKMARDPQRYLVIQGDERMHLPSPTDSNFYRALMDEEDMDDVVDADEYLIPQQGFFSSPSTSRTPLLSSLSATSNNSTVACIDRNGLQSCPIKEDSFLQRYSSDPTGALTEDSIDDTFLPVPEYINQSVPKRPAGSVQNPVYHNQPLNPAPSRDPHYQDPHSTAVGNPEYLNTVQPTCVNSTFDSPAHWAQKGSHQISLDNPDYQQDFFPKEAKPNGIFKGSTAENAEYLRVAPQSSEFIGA

Compound: COCCNc1nc(-c2cccc(NC(=O)c3c(F)cccc3F)c2)c(-c2ccnc(Nc3ccc(OCCN4CCCC4)c(Cl)c3)n2)s1 [Example 27, N-[3-(5-{2-[(3-Chloro-4-{[2-(1-pyrrolidinyl)ethyl]oxy}phenyl)amino]-4-pyrimidinyl}-2-{[2-(methyloxy)ethyl]amino}-1,3-thiazol-4-yl)phenyl]-2,6-difluorobenzamide]
- pIC50 (SK-MEL-3 tumor cells): 6.00 to 7.00
- pIC50 (Colo205 tumor cells): 6.00 to 7.00
- pIC50 (SK-MEL-28 tumor cells): 6.00 to 7.00
- pIC50 (BT474 tumor cells): > 7.00
- pIC50 (ErbB2): > 7.00
- pIC50 (EGFR): > 7.00
- pIC50 (HN5 tumor cells): > 7.00
- pIC50 (A375P F11s tumor cells): 6.00 to 7.00
- pIC50 (HT-29 tumor cells): 6.00 to 7.00

Compound: CN(C)CCOc1ccc(Nc2nccc(-c3sc(N)nc3-c3cccc(C(=O)Nc4c(F)cccc4F)c3)n2)cc1Cl [Example 75, 3-(2-Amino-5-{2-[(3-chloro-4-{[2-(dimethylamino)ethyl]oxy}phenyl)amino]-4-pyrimidinyl}-1,3-thiazol-4-yl)-N-(2,6-difluorophenyl)benzamide]
- pIC50 (SK-MEL-3 tumor cells): 6.00 to 7.00
- pIC50 (Colo205 tumor cells): 6.00 to 7.00
- pIC50 (SK-MEL-28 tumor cells): < 6.00
- pIC50 (BT474 tumor cells): > 7.00
- pIC50 (ErbB2): > 7.00
- pIC50 (EGFR): > 7.00
- pIC50 (HN5 tumor cells): 6.00 to 7.00
- pIC50 (A375P F11s tumor cells): 6.00 to 7.00
- pIC50 (HT-29 tumor cells): 6.00 to 7.00

Compound: CC(=O)N1CCC(Oc2ccc(Nc3nccc(-c4sc(C)nc4-c4cccc(NC(=O)c5c(F)cccc5F)c4)n3)cc2F)CC1 [Example 109, N-(3-{5-[2-({4-[(1-Acetyl-4-piperidinyl)oxy]-3-fluorophenyl}amino)-4-pyrimidinyl]-2-methyl-1,3-thiazol-4-yl}phenyl)-2,6-difluorobenzamide]
- pIC50 (SK-MEL-3 tumor cells): < 6.00
- pIC50 (Colo205 tumor cells): < 6.00
- pIC50 (SK-MEL-28 tumor cells): < 6.00
- pIC50 (BT474 tumor cells): 6.00 to 7.00
- pIC50 (ErbB2): > 7.00
- pIC50 (EGFR): > 7.00
- pIC50 (HN5 tumor cells): 6.00 to 7.00
- pIC50 (A375P F11s tumor cells): < 6.00
- pIC50 (HT-29 tumor cells): < 6.00

Compound: CN(C)CCOc1ccc(Nc2nccc(-c3sc(N4CCCCC4)nc3-c3cccc(NC(=O)c4c(F)cccc4F)c3)n2)cc1Cl [Example 72, N-{3-[5-{2-[(3-Chloro-4-{[2-(dimethylamino)ethyl]oxy}phenyl)amino]-4-pyrimidinyl}-2-(1-piperidinyl)-1,3-thiazol-4-yl]phenyl}-2,6-difluorobenzamide]
- pIC50 (SK-MEL-3 tumor cells): < 6.00
- pIC50 (Colo205 tumor cells): < 6.00
- pIC50 (SK-MEL-28 tumor cells): < 6.00
- pIC50 (BT474 tumor cells): < 6.00
- pIC50 (ErbB2): > 7.00
- pIC50 (EGFR): > 7.00
- pIC50 (HN5 tumor cells): 6.00 to 7.00
- pIC50 (A375P F11s tumor cells): < 6.00
- pIC50 (HT-29 tumor cells): 6.00 to 7.00

Compound: CN(C)c1nc(-c2cccc(NC(=O)c3c(F)cccc3F)c2)c(-c2ccnc(Nc3cccc(CN4CCCC4)c3)n2)s1 [Example 39, N-{3-[2-(Dimethylamino)-5-(2-{[3-(1-pyrrolidinylmethyl)phenyl]amino}-4-pyrimidinyl)-1,3-thiazol-4-yl]phenyl}-2,6-difluorobenzamide]
- pIC50 (SK-MEL-3 tumor cells): 6.00 to 7.00
- pIC50 (Colo205 tumor cells): 6.00 to 7.00
- pIC50 (SK-MEL-28 tumor cells): < 6.00
- pIC50 (BT474 tumor cells): > 7.00
- pIC50 (ErbB2): > 7.00
- pIC50 (EGFR): > 7.00
- pIC50 (HN5 tumor cells): 6.00 to 7.00
- pIC50 (A375P F11s tumor cells): 6.00 to 7.00
- pIC50 (HT-29 tumor cells): 6.00 to 7.00

Compound: CN(C)Cc1cccc(Nc2nccc(-c3scnc3-c3cccc(NC(=O)c4c(F)cccc4F)c3)n2)c1 [Example 90, N-(3-{5-[2-({3-[(Dimethylamino)methyl]-phenyl}amino)-4-pyrimidinyl]-1,3-thiazol-4-yl}phenyl)-2,6-difluorobenzamide-formic acid]
- pIC50 (SK-MEL-3 tumor cells): < 6.00
- pIC50 (Colo205 tumor cells): 6.00 to 7.00
- pIC50 (SK-MEL-28 tumor cells): < 6.00
- pIC50 (BT474 tumor cells): > 7.00
- pIC50 (ErbB2): > 7.00
- pIC50 (EGFR): > 7.00
- pIC50 (HN5 tumor cells): 6.00 to 7.00
- pIC50 (A375P F11s tumor cells): 6.00 to 7.00
- pIC50 (HT-29 tumor cells): 6.00 to 7.00

Compound: Nc1nc(-c2cccc(NC(=O)c3c(F)cccc3F)c2)c(-c2ccnc(Nc3cccc(CN4CCCC4)c3)n2)s1 [Example 13, N-{3-[2-Amino-5-(2-{[3-(1-pyrrolidinylmethyl)phenyl]amino}-4-pyrimidinyl)-1,3-thiazol-4-yl]phenyl}-2,6-difluorobenzamide]
- pIC50 (SK-MEL-3 tumor cells): 6.00 to 7.00
- pIC50 (Colo205 tumor cells): 6.00 to 7.00
- pIC50 (SK-MEL-28 tumor cells): < 6.00
- pIC50 (BT474 tumor cells): > 7.00
- pIC50 (ErbB2): > 7.00
- pIC50 (EGFR): > 7.00
- pIC50 (HN5 tumor cells): > 7.00
- pIC50 (A375P F11s tumor cells): 6.00 to 7.00
- pIC50 (HT-29 tumor cells): 6.00 to 7.00

Compound: CN(C)CCOc1ccc(Nc2nccc(-c3sc(N(C)C)nc3-c3cccc(NC(=O)c4c(F)cccc4F)c3)n2)cc1 [Example 36, N-[3-(2-(Dimethylamino)-5-{2-[(4-{[2-(dimethylamino)ethyl]oxy}phenyl)amino]-4-pyrimidinyl}-1,3-thiazol-4-yl)phenyl]-2,6-difluorobenzamide]
- pIC50 (SK-MEL-3 tumor cells): < 6.00
- pIC50 (Colo205 tumor cells): 6.00 to 7.00
- pIC50 (SK-MEL-28 tumor cells): < 6.00
- pIC50 (BT474 tumor cells): > 7.00
- pIC50 (ErbB2): > 7.00
- pIC50 (EGFR): > 7.00
- pIC50 (HN5 tumor cells): > 7.00
- pIC50 (A375P F11s tumor cells): < 6.00
- pIC50 (HT-29 tumor cells): 6.00 to 7.00

Compound: CN(C)C1Cc2ccc(Nc3nccc(-c4sc(N)nc4-c4cccc(NC(=O)c5c(F)cccc5F)c4)n3)cc2C1 (stereo not drawn) [Example 12, N-{3-[2-Amino-5-(2-{[2-(dimethylamino)-2,3-dihydro-1H-indeN-5-yl]amino}-4-pyrimidinyl)-1,3-thiazol-4-yl]phenyl}-2,6-difluorobenzamide]
- pIC50 (SK-MEL-3 tumor cells): 6.00 to 7.00
- pIC50 (Colo205 tumor cells): 6.00 to 7.00
- pIC50 (SK-MEL-28 tumor cells): < 6.00
- pIC50 (BT474 tumor cells): > 7.00
- pIC50 (ErbB2): > 7.00
- pIC50 (EGFR): > 7.00
- pIC50 (HN5 tumor cells): > 7.00
- pIC50 (A375P F11s tumor cells): 6.00 to 7.00
- pIC50 (HT-29 tumor cells): 6.00 to 7.00

Compound: CC(C)c1nc(-c2cccc(NC(=O)c3c(F)cccc3F)c2)c(-c2ccnc(Nc3ccc(OCCN4CCCC4)c(Cl)c3)n2)s1 [Example 121, N-{3-[5-{2-[(3-chloro-4-{[2-(1-pyrrolidinyl)-ethyl]oxy}phenyl)amino]-4-pyrimidinyl}-2-(1-methylethyl)-1,3-thiazol-4-yl]phenyl}-2,6-difluorobenzamide]
- pIC50 (SK-MEL-3 tumor cells): 6.00 to 7.00
- pIC50 (Colo205 tumor cells): 6.00 to 7.00
- pIC50 (SK-MEL-28 tumor cells): 6.00 to 7.00
- pIC50 (BT474 tumor cells): 6.00 to 7.00
- pIC50 (ErbB2): > 7.00
- pIC50 (EGFR): > 7.00
- pIC50 (HN5 tumor cells): 6.00 to 7.00
- pIC50 (A375P F11s tumor cells): 6.00 to 7.00
- pIC50 (HT-29 tumor cells): 6.00 to 7.00

Compound: CCN(CC)CCOc1cccc(Nc2nccc(-c3sc(N)nc3-c3cccc(NC(=O)c4c(F)cccc4F)c3)n2)c1 [Example 17, N-(3-{2-Amino-5-[2-({3-[2-(diethylamino)ethoxy]phenyl}amino)pyrimidiN-4-yl]-1,3-thiazol-4-yl}phenyl)-2,6-difluorobenzamide]
- pIC50 (SK-MEL-3 tumor cells): < 6.00
- pIC50 (Colo205 tumor cells): 6.00 to 7.00
- pIC50 (SK-MEL-28 tumor cells): < 6.00
- pIC50 (BT474 tumor cells): > 7.00
- pIC50 (ErbB2): > 7.00
- pIC50 (EGFR): > 7.00
- pIC50 (HN5 tumor cells): > 7.00
- pIC50 (A375P F11s tumor cells): 6.00 to 7.00
- pIC50 (HT-29 tumor cells): 6.00 to 7.00

Compound: CCc1nc(-c2cccc(NC(=O)c3c(F)cccc3F)c2)c(-c2ccnc(Nc3ccc(OCCN4CCCC4)c(Cl)c3)n2)s1 [Example 113, N-[3-(5-{2-[(3-Chloro-4-{[2-(1-pwrolidinyl)ethyl]oxy}phenyl)amino]-4-pyrimidinyl}-2-ethyl-1,3-thiazol-4-yl)phenyl]-2,6-difluorobenzamide]
- pIC50 (SK-MEL-3 tumor cells): 6.00 to 7.00
- pIC50 (Colo205 tumor cells): < 6.00
- pIC50 (SK-MEL-28 tumor cells): < 6.00
- pIC50 (BT474 tumor cells): 6.00 to 7.00
- pIC50 (ErbB2): > 7.00
- pIC50 (EGFR): > 7.00
- pIC50 (HN5 tumor cells): 6.00 to 7.00
- pIC50 (A375P F11s tumor cells): 6.00 to 7.00
- pIC50 (HT-29 tumor cells): 6.00 to 7.00

Compound: CN(C)c1nc(-c2cccc(NC(=O)c3c(F)cccc3F)c2)c(-c2ccnc(Nc3ccc(OCCN4CCCC4)c(Cl)c3)n2)s1 [Example 40, N-{3-[5-{2-[(3-Chloro-4-{[2-(1-pyrrolidinyl)ethyl]oxy}phenyl)amino]-4-pyrimidinyl}-2-(dimethylamino)-1,3-thiazol-4-yl]phenyl}-2,6-difluorobenzamide]
- pIC50 (SK-MEL-3 tumor cells): 6.00 to 7.00
- pIC50 (Colo205 tumor cells): 6.00 to 7.00
- pIC50 (SK-MEL-28 tumor cells): 6.00 to 7.00
- pIC50 (BT474 tumor cells): 6.00 to 7.00
- pIC50 (ErbB2): > 7.00
- pIC50 (EGFR): > 7.00
- pIC50 (HN5 tumor cells): 6.00 to 7.00
- pIC50 (A375P F11s tumor cells): 6.00 to 7.00
- pIC50 (HT-29 tumor cells): 6.00 to 7.00

— patent US20110098296A1, “Thiazole And Oxazole Kinase Inhibitors” (priority 2007, published 2011)
